Reference: US9134325B2, “Resistance biomarkers for HDAC inhibitors” (Celgene Corporation, priority 2012, dated 2015)
Values joined by “and” are separate entries in the source; they are usually repeats but may differ in a detail not shown here. Identical values can stand only once.

What was measured:
class 1 HDACs 1 and 2 = conditions: data from Bradner et al., FIG. 6; cited from earlier work
cell line panel = experiment: Cell line panel viability screen (Cell Titer-Glo), S-value; assay type: cell-based
Experimental: (§1) Sensitivity of cells to HDAC inhibitor treatment is expressed as their S-value (S), which is a dimensionless compound value generated by adding the values of IC50 and the growth rate (GR) at the maximum drug concentration used to determine the IC50. The term (maximum drug concentration/200) is added in the equation below to achieve equal weighting of the S-value for IC50 and GR. S=IC50+(GR+100)×(maximum drug concentration/200) See FIG. 1 for an example of an S value calculation and explanation of GR.
(§2) To determine cell growth IC50 and GR at a given drug concentration, growth was plotted against drug concentration as a percentage of the number of cells present at the beginning of the experiment. Cells were plated in 96-well plates and allowed to attach and grow overnight. The following day, the cells were treated with serial dilutions of test compound. The viable cells were measured at day 0 (24 hours after plating) and day 3 (72 hours after adding the tested compound) using Cell Titer-Glo. Growth was calculated compared to day 0.
(§3) The plot generated two key data, the IC50 value and the % growth at the highest tested compound concentration (GR). The highest concentration tested for romidepsin was 1000 nM.
The IC50s in these experiments could range from 0-1000 nM. […] Growth at the highest drug concentration tested ranged from −100 to +100. For the calculation of the S-Value, 100 was added to the numerical value of the observed growth, so that only positive numbers were generated (after adding 100, the range was from 0-200). Since IC50s and growth at the maximum drug concentration tested have different numerical ranges (0-1000 as compared to 0-200), the value for growth inhibition was multiplied by the maximum drug concentration used/200. This means that in the example given, both IC50 and GR could contribute values of 0-1000 to the S-value.
A cell line panel viability screen was used to compare the effects of a 6 hour and 72 hour treatment with romidepsin across a wide variety of cell lines. […] The S-Value was computed for the 6 h treatment and ranged from 5 for the most sensitive cell lines to 2000 for the most resistant cell lines. To identify genes whose expression correlated with sensitivity to HDAC inhibitor treatment, we applied two way ANOVA to select genes that were correlated with sensitivity. […] The most overexpressed gene in the resistant subgroup, ABCB1 (Res/Sen=29.6) is known to cause resistance to romidepsin treatment. This approach identified novel genes that correlated with resistance and/or sensitivity to the HDAC inhibitors but not tissue origin.
A cell line panel viability screen was used to compare the effects of romidepsin across a wide variety of cell lines and is shown in FIG. 3.

SKOV3 NS cells = experiment: Cell growth assay (Cell Titer-Glo) in SKOV3 cells expressing non-silencing control shRNA; assay type: cell-based; conditions: for IC50: romidepsin, 5 independent experiments
Experimental: as §1, §2, §3
Effect of knocking down TSPYL5 expression using shRNA on IC50, GR and S values of romidepsin treatment. SKOV3 cells expressing either TSPYL5 shRNA (SKOV3 TSPYL5 KD) or non-silencing control shRNA (SKOV3 NS) were created using lentiviral infection. Knockdown of TSPYL5 in SKOV3 TSPYL5 KD cells was verified using western blot and quantitative PCR. Expression of TSPYL5 in these cells was reduced by 70%. After selection of stable pools with puromycin, cells were treated with varying concentrations of romidepsin for determination of IC50, GR and S value. Data from 5 independent experiments are shown. SKOV3 TSPYL5 KD cells have lower IC50s, show […] growth rate (GR) and have thus smaller S values than SKOV3 NS cells, meaning these cells are more sensitive to treatment with romidepsin. The data are plotted in FIG. 5. Differences between the 2 lines are significant (paired t test).

SKOV3 TSPYL5 KD cells = experiment: Cell growth assay (Cell Titer-Glo) in SKOV3 cells expressing TSPYL5 shRNA; assay type: cell-based
Experimental: as §1, §2
The plot generated two key data, the IC50 value and the % growth at the highest tested compound concentration (GR). […]
Effect of knocking down TSPYL5 expression using shRNA on IC50, GR and S values of romidepsin treatment. […] Knockdown of TSPYL5 in SKOV3 TSPYL5 KD cells was verified using western blot and quantitative PCR. […]

HDF TSPYL5 KD cells = experiment: Cell growth assay in human dermal fibroblasts with TSPYL5 knockdown; assay type: cell-based; conditions: HDF TSPYL5 KD versus HDF NS, FIG. 8
Description: FIG. 8 depicts the effect of knockdown of TSPYL5 expression on sensitivity of HDF cells to romidepsin using shRNA, as measured by the effect of romidepsin treatment on IC50 (Panel A), growth rate (GR) (Panel B) and S value (Panel C). Sensitivity of TSPYL5 knockdown cells to romidepsin is increased as measured by S value and growth rate. HDF cells expressing either TSPYL5 shRNA (HDF TSPYL5 KD) or non-silencing control shRNA (HDF NS) were created using lentiviral infection. Knockdown of TSPYL5 in HDF TSPYL5 KD cells was verified using western blot and quantitative PCR. Expression of TSPYL5 in these cells was reduced by >70%. After selection of stable pools with puromycen, cells were treated with varying concentrations of romidepsin for determination of IC50, GR and S value. The data shown are means and standard deviations from 8 independent experiments. Panel A: Romidepsin IC50s for HDF TSPYL5 KD cells and HDF NS cells. Panel B: Romidepsin GR for HDF TSPYL5 KD cells and HDF NS cells. […]
as §2, with “Cells were plated in 96-well plates and allowed to attach and grow overnight. The following day, the cells were treated with serial dilutions of test compound.” left out

[1] = system: primary human tumors propagated in mice; experiment: Clonogenic two-layer soft agar assay of primary patient tumor explants; assay type: cell-based; conditions: IC50 of clonogenic assay against TSPYL5 expression, FIG. 4
Experimental: Primary human tumors were propagated in mice. Tumors were dissociated and their sensitivity to romidepsin was tested using a clonogenic assay.
The clonogenic assay was performed in a 24-well format according to a modified two-layer soft agar assay introduced by Hamburger & Salmon (Hamburger A W, Salmon S E. Primary bioassay of human tumor stem cells. Science 197:461 (1977)). Briefly, cells were seeded on a bottom layer of growth medium supplemented with 0.4% (w/v) agar. Cells were added in 0.2 ml of the same medium supplemented with 0.4% (w/v) agar. Test compounds were applied diluted in culture medium. Cultures were incubated at 37° C. and 7.5% CO2 in a humidified atmosphere for up to 21 days. After 4-21 days, colonies were counted and drug effect was expressed as percent colony formations compared to untreated controls.

class 2 HDAC 6 = molecular target: T1, class 2 HDAC 6 (Homo sapiens, UniProt Q9UBN7); conditions: data from Bradner et al., FIG. 6; cited from earlier work
T1 sequence (Q9UBN7 1-1215): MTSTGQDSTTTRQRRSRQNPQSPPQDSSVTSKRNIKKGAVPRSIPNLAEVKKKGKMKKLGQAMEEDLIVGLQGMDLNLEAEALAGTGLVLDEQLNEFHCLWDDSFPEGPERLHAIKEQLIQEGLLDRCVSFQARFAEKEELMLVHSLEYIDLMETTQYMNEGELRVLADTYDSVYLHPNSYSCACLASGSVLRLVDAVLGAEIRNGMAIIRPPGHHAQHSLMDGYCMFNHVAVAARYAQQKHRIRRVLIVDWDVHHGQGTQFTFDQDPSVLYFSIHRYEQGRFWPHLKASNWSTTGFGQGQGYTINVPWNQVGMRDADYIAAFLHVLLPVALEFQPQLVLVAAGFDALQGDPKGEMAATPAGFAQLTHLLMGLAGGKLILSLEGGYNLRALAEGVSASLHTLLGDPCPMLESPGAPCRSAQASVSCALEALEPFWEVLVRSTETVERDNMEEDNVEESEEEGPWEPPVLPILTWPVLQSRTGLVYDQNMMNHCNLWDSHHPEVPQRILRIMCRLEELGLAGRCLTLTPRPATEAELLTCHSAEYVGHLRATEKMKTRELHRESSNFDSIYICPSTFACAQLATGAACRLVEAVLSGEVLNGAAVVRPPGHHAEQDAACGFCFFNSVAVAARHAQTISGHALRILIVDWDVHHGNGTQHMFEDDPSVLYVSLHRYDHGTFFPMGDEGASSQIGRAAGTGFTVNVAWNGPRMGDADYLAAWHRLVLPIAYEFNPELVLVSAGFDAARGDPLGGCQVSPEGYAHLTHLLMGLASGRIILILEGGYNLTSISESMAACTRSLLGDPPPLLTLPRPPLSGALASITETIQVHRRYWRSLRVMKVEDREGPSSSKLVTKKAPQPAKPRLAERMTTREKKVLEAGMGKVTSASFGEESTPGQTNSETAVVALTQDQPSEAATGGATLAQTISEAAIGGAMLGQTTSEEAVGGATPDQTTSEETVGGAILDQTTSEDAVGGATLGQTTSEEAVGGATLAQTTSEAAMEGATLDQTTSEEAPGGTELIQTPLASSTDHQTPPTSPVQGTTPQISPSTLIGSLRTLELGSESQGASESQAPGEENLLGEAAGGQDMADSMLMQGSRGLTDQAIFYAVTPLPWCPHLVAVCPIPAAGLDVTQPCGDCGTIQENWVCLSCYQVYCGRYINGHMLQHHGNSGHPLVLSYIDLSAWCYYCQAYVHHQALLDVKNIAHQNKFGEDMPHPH

Row | SMILES | Inhibition of class 1 HDACs 1 and 2 (class 1 HDACs 1 and 2) | Sensitivity by tissue of origin (cell line panel; 6 h drug treatment, S value, FIG. 2B) | S-value across cell lines (cell line panel; 6 h drug treatment, most sensitive to most resistant cell lines) | Sensitivity of cell lines (cell line panel; 72 hour treatment) | Sensitivity of cell lines expressing high levels of TSPYL5 (cell line panel; S value against TSPYL5 gene expression, FIG. 3) | IC50 (cell line panel; read-out: IC50 of cell growth) [µM] | IC50 (SKOV3 NS cells; Homo sapiens, SK-OV-3, SKOV3 NS (non-silencing control shRNA)) [µM] | IC50 (SKOV3 NS cells; SKOV3 NS (non-silencing control shRNA)) | S value (SKOV3 NS cells; SKOV3 NS, S=IC50+(GR+100)×(maximum drug concentration/200)) | S value (SKOV3 TSPYL5 KD cells; S=IC50+(GR+100)×(maximum drug concentration/200)) | GR (growth at the highest tested concentration) (SKOV3 TSPYL5 KD cells; highest romidepsin concentration 1000 nM, relative to day 0) | Effect of TSPYL5 knockdown on sensitivity of HDF cells (HDF TSPYL5 KD cells) | Sensitivity of primary tumors with high TSPYL5 expression [1] | Inhibition of class 2 HDAC 6 (class 2 HDAC 6)
1 | Nc1ccccc1NC(=O)c1ccc(CNC(=O)OCc2cccnc2)cc1 [entinostat] | inhibit |  |  |  |  |  |  |  |  |  |  |  |  | 
2 | C/C=C1\NC(=O)[C@H]2CSSCC/C=C/[C@H](CC(=O)N[C@H](C(C)C)C(=O)N2)OC(=O)[C@H](C(C)C)NC1=O [romidepsin] | inhibit | blood cell lines show the greatest sensitivity | 4-2000 | majority of the tested cell lines showed sensitivity | no cell line expressing high levels of TSPYL5 was sensitive | 0.0973 | 0.141 | 0.136 µM and 0.139 µM and 0.098 µM and 0.162 µM | 291 and 253 and 256 and 230 and 243 | 156 and 115 and 105 and 112 and 135 | −92.5% and −88.6% and −93.2% and −86.1% and −84.3% | increases sensitivity | resistant | 
3 | O=C(CCCCCCC(=O)Nc1ccccc1)NO [vorinostat] |  |  |  |  |  |  |  |  |  |  |  |  |  | inhibit
